{
  "source": "PubChem BioAssay (NCI)",
  "assay_in_all_cases": "DTP human tumour cell line panel, 48 h",
  "key": {"M19-MEL melanoma": {"system": "M19-MEL melanoma"}, "A498 renal": {"system": "A498 renal"}, "SW-620 colon": {"system": "SW-620 colon"}, "SK-MEL-2 melanoma": {"system": "SK-MEL-2 melanoma"}, "HCC-2998 colon": {"system": "HCC-2998 colon"}, "COLO 205 colon": {"system": "COLO 205 colon"}, "SNB-19 CNS": {"system": "SNB-19 CNS"}, "A549 NSCLC": {"system": "A549 NSCLC"}, "SF-295 CNS": {"system": "SF-295 CNS"}, "HT29 colon": {"system": "HT29 colon"}, "CCRF-CEM leukemia": {"system": "CCRF-CEM leukemia"}, "HCT-15 colon": {"system": "HCT-15 colon"}, "786-0 renal": {"system": "786-0 renal"}, "SK-MEL-28 melanoma": {"system": "SK-MEL-28 melanoma"}, "DMS 114 small cell lung": {"system": "DMS 114 small cell lung"}, "SNB-78 CNS": {"system": "SNB-78 CNS"}, "CAKI-1 renal": {"system": "CAKI-1 renal"}, "RXF-631 renal": {"system": "RXF-631 renal"}, "KM20L2 colon": {"system": "KM20L2 colon"}, "K-562 leukemia": {"system": "K-562 leukemia"}, "UACC-257 melanoma": {"system": "UACC-257 melanoma"}, "MOLT-4 leukemia": {"system": "MOLT-4 leukemia"}, "NCI-H460 lung": {"system": "NCI-H460 lung"}, "M14 melanoma": {"system": "M14 melanoma"}, "OVCAR-4 ovarian": {"system": "OVCAR-4 ovarian"}, "SR leukemia": {"system": "SR leukemia"}, "EKVX NSCLC": {"system": "EKVX NSCLC"}, "UO-31 renal": {"system": "UO-31 renal"}, "OVCAR-5 ovarian": {"system": "OVCAR-5 ovarian"}, "SN12C renal": {"system": "SN12C renal"}, "UACC-62 melanoma": {"system": "UACC-62 melanoma"}, "HCT-116 colon": {"system": "HCT-116 colon"}, "KM12 colon": {"system": "KM12 colon"}, "HOP-62 NSCLC": {"system": "HOP-62 NSCLC"}, "RPMI-8226 leukemia": {"system": "RPMI-8226 leukemia"}, "LOX IMVI melanoma": {"system": "LOX IMVI melanoma"}, "XF 498 CNS": {"system": "XF 498 CNS"}, "ACHN renal": {"system": "ACHN renal"}, "HOP-92 NSCLC": {"system": "HOP-92 NSCLC"}, "SNB-75 CNS": {"system": "SNB-75 CNS"}, "OVCAR-3 ovarian": {"system": "OVCAR-3 ovarian"}, "SF-268 CNS": {"system": "SF-268 CNS"}, "TK-10 renal": {"system": "TK-10 renal"}, "HOP-18 NSCLC": {"system": "HOP-18 NSCLC"}, "HL-60(TB) leukemia": {"system": "HL-60(TB) leukemia"}, "OVCAR-8 ovarian": {"system": "OVCAR-8 ovarian"}, "RXF 393 renal": {"system": "RXF 393 renal"}, "MALME-3M melanoma": {"system": "MALME-3M melanoma"}, "U251 CNS": {"system": "U251 CNS"}, "NCI-H226 lung": {"system": "NCI-H226 lung"}, "LXFL 529 NSCLC": {"system": "LXFL 529 NSCLC"}},
  "note": "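Interpolation was linear, between the two tested concentrations surrounding the appropriate level; five concentrations were tested over 48 hours in 96-well plates. TGI marks complete inhibition of growth.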",
  "data": [
    {"smiles": "N#CSCc1nc2ccc(Cl)cc2c(-c2ccccc2)[n+]1[O-]", "values": [
      {"measurement": "TGI", "setting": "M19-MEL melanoma", "value": "> 100", "unit": "µM"},
      {"measurement": "TGI", "setting": "A498 renal", "value": "> 100", "unit": "µM"},
      {"measurement": "TGI", "setting": "SW-620 colon", "value": 30.2, "unit": "µM"},
      {"measurement": "TGI", "setting": "SK-MEL-2 melanoma", "value": 42.3, "unit": "µM"},
      {"measurement": "TGI", "setting": "HCC-2998 colon", "value": 29.1, "unit": "µM"},
      {"measurement": "TGI", "setting": "COLO 205 colon", "value": "> 100", "unit": "µM"},
      {"measurement": "TGI", "setting": "SNB-19 CNS", "value": "> 100", "unit": "µM"},
      {"measurement": "TGI", "setting": "A549 NSCLC", "value": "> 100", "unit": "µM"},
      {"measurement": "TGI", "setting": "SF-295 CNS", "value": "> 100", "unit": "µM"},
      {"measurement": "TGI", "setting": "HT29 colon", "value": 35, "unit": "µM"},
      {"measurement": "TGI", "setting": "CCRF-CEM leukemia", "value": 39.2, "unit": "µM"},
      {"measurement": "TGI", "setting": "HCT-15 colon", "value": 32.5, "unit": "µM"},
      {"measurement": "TGI", "setting": "786-0 renal", "value": 32.1, "unit": "µM"},
      {"measurement": "TGI", "setting": "SK-MEL-28 melanoma", "value": 27.7, "unit": "µM"},
      {"measurement": "TGI", "setting": "DMS 114 small cell lung", "value": 72.5, "unit": "µM"},
      {"measurement": "TGI", "setting": "SNB-78 CNS", "value": "> 100", "unit": "µM"},
      {"measurement": "TGI", "setting": "CAKI-1 renal", "value": 47.9, "unit": "µM"},
      {"measurement": "TGI", "setting": "RXF-631 renal", "value": "> 100", "unit": "µM"},
      {"measurement": "TGI", "setting": "KM20L2 colon", "value": 30.8, "unit": "µM"},
      {"measurement": "TGI", "setting": "K-562 leukemia", "value": 87.7, "unit": "µM"},
      {"measurement": "TGI", "setting": "UACC-257 melanoma", "value": "> 100", "unit": "µM"},
      {"measurement": "TGI", "setting": "MOLT-4 leukemia", "value": 41.6, "unit": "µM"},
      {"measurement": "TGI", "setting": "NCI-H460 lung", "value": "> 100", "unit": "µM"},
      {"measurement": "TGI", "setting": "M14 melanoma", "value": 42.1, "unit": "µM"},
      {"measurement": "TGI", "setting": "OVCAR-4 ovarian", "value": 55.2, "unit": "µM"},
      {"measurement": "TGI", "setting": "SR leukemia", "value": 76.1, "unit": "µM"},
      {"measurement": "TGI", "setting": "EKVX NSCLC", "value": 40.9, "unit": "µM"},
      {"measurement": "TGI", "setting": "UO-31 renal", "value": 32.7, "unit": "µM"},
      {"measurement": "TGI", "setting": "OVCAR-5 ovarian", "value": 39, "unit": "µM"},
      {"measurement": "TGI", "setting": "SN12C renal", "value": 39.5, "unit": "µM"},
      {"measurement": "TGI", "setting": "UACC-62 melanoma", "value": 36.9, "unit": "µM"},
      {"measurement": "TGI", "setting": "HCT-116 colon", "value": 39.7, "unit": "µM"},
      {"measurement": "TGI", "setting": "KM12 colon", "value": 51.9, "unit": "µM"},
      {"measurement": "TGI", "setting": "HOP-62 NSCLC", "value": "> 100", "unit": "µM"},
      {"measurement": "TGI", "setting": "RPMI-8226 leukemia", "value": 54.4, "unit": "µM"},
      {"measurement": "TGI", "setting": "LOX IMVI melanoma", "value": 31.9, "unit": "µM"},
      {"measurement": "TGI", "setting": "XF 498 CNS", "value": 33, "unit": "µM"},
      {"measurement": "TGI", "setting": "ACHN renal", "value": 30.5, "unit": "µM"},
      {"measurement": "TGI", "setting": "HOP-92 NSCLC", "value": 34.7, "unit": "µM"},
      {"measurement": "TGI", "setting": "SNB-75 CNS", "value": 88.2, "unit": "µM"},
      {"measurement": "TGI", "setting": "OVCAR-3 ovarian", "value": 44.4, "unit": "µM"},
      {"measurement": "TGI", "setting": "SF-268 CNS", "value": 61.7, "unit": "µM"},
      {"measurement": "TGI", "setting": "TK-10 renal", "value": "> 100", "unit": "µM"},
      {"measurement": "TGI", "setting": "HOP-18 NSCLC", "value": 33.6, "unit": "µM"},
      {"measurement": "TGI", "setting": "HL-60(TB) leukemia", "value": 42.9, "unit": "µM"},
      {"measurement": "TGI", "setting": "OVCAR-8 ovarian", "value": 38.5, "unit": "µM"},
      {"measurement": "TGI", "setting": "RXF 393 renal", "value": 26.4, "unit": "µM"},
      {"measurement": "TGI", "setting": "MALME-3M melanoma", "value": 62.5, "unit": "µM"},
      {"measurement": "TGI", "setting": "U251 CNS", "value": 80.6, "unit": "µM"},
      {"measurement": "TGI", "setting": "NCI-H226 lung", "value": 64.5, "unit": "µM"},
      {"measurement": "TGI", "setting": "LXFL 529 NSCLC", "value": 26.8, "unit": "µM"}
    ]}
  ]
}
